# According to ChEMBL document CHEMBL1201862, “PubChem BioAssay data set” (2004):
# Structures can show the parent of a compound that is named as a salt.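 Compound exposure: 48 hours, 5 concentrations, 96-well plates. Here, GI50 denotes the concentration required for 50% inhibition of growth.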 Calls of active or inactive are those of the source. Cut-off read from the data, not from the text of the source: active = GI50 up to about 1.1 µM and inactive = higher.
# How the values were obtained:
# Assay in all cases: NCI anticancer screen, dose series, 48 h
# HL-60 = system: HL-60
# NCI-H23 = system: NCI-H23
# UACC-257 = system: UACC-257
# CAKI-1 = system: CAKI-1
# BT-549 = system: BT-549
# UACC-62 = system: UACC-62
# A498 = system: A498
# NCI-H226 = system: NCI-H226
# SNB-75 = system: SNB-75
# ACHN = system: ACHN
# OVCAR-8 = system: OVCAR-8
# NCI/ADR-RES = system: NCI/ADR-RES
# SF-268 = system: SF-268
# HOP-92 = system: HOP-92
# TK-10 = system: TK-10
# CCRF-CEM = system: CCRF-CEM
# OVCAR-4 = system: OVCAR-4
# RPMI-8226 = system: RPMI-8226
# MOLT-4 = system: MOLT-4
# MDA-N = system: MDA-N
# EKVX = system: EKVX
# MDA-MB-435 = system: MDA-MB-435
# KM12 = system: KM12
# U-251 = system: U-251
# HCT-15 = system: HCT-15
# MDA-MB-231 = system: MDA-MB-231
# SK-MEL-28 = system: SK-MEL-28
# SR = system: SR
# NCI-H460 = system: NCI-H460
# SN12C = system: SN12C
# SNB-19 = system: SNB-19
# HCC 2998 = system: HCC 2998
# UO-31 = system: UO-31
# HOP-62 = system: HOP-62
# SK-MEL-5 = system: SK-MEL-5
# HCT-116 = system: HCT-116
# SK-OV-3 = system: SK-OV-3
# LOX IMVI = system: LOX IMVI
# MCF7 = system: MCF7
# PC-3 = system: PC-3
# OVCAR-3 = system: OVCAR-3
# Hs-578T = system: Hs-578T
# M14 = system: M14
# SF-539 = system: SF-539
# OVCAR-5 = system: OVCAR-5
# SK-MEL-2 = system: SK-MEL-2
# IGROV-1 = system: IGROV-1
# 786-0 = system: 786-0
# NCI-H522 = system: NCI-H522
# DU-145 = system: DU-145
# HT-29 = system: HT-29
# COLO 205 = system: COLO 205
# SF-295 = system: SF-295
# SW-620 = system: SW-620
# RXF 393 = system: RXF 393
# A549 = system: A549
# Malme-3M = system: Malme-3M
# K562 = system: K562
structure (smiles),measurement,setting,value
CC1(C)/C(=N\O)C2(OS(=O)(=O)C(F)(F)F)CCC1C2 (stereo not given),GI50,HL-60,12 µM (inactive)
same,GI50,NCI-H23,> 100 µM (inactive)
same,GI50,UACC-257,> 100 µM (inactive)
same,GI50,CAKI-1,> 100 µM (inactive)
same,GI50,BT-549,> 100 µM (inactive)
same,GI50,UACC-62,> 100 µM (inactive)
same,GI50,A498,> 100 µM (inactive)
same,GI50,NCI-H226,70.8 µM (inactive)
same,GI50,SNB-75,> 100 µM (inactive)
same,GI50,ACHN,> 100 µM (inactive)
same,GI50,OVCAR-8,> 100 µM (inactive)
same,GI50,NCI/ADR-RES,> 100 µM (inactive)
same,GI50,SF-268,> 100 µM (inactive)
same,GI50,HOP-92,> 100 µM (inactive)
same,GI50,TK-10,> 100 µM (inactive)
same,GI50,CCRF-CEM,> 100 µM (inactive)
same,GI50,OVCAR-4,> 100 µM (inactive)
same,GI50,RPMI-8226,27.4 µM (inactive)
same,GI50,MOLT-4,> 100 µM (inactive)
same,GI50,MDA-N,> 100 µM (inactive)
same,GI50,EKVX,> 100 µM (inactive)
same,GI50,MDA-MB-435,60.1 µM (inactive)
same,GI50,KM12,> 100 µM (inactive)
same,GI50,U-251,> 100 µM (inactive)
same,GI50,HCT-15,> 100 µM
same,GI50,MDA-MB-231,> 100 µM (inactive)
same,GI50,SK-MEL-28,> 100 µM (inactive)
same,GI50,SR,55.1 µM (inactive)
same,GI50,NCI-H460,> 100 µM (inactive)
same,GI50,SN12C,> 100 µM (inactive)
same,GI50,SNB-19,> 100 µM (inactive)
same,GI50,HCC 2998,> 100 µM (inactive)
same,GI50,UO-31,> 100 µM (inactive)
COc1ccc(OC)c(/C=C2/C(=O)N/C(=N\C(C)=O)N2C)c1,GI50,HOP-62,> 100 µM (inactive)
same,GI50,SK-MEL-5,> 100 µM (inactive)
same,GI50,HL-60,95.1 µM (inactive)
same,GI50,NCI-H23,> 100 µM (inactive)
same,GI50,HCT-116,> 100 µM (inactive)
same,GI50,UACC-257,> 100 µM (inactive)
same,GI50,SK-OV-3,> 100 µM (inactive)
same,GI50,CAKI-1,> 100 µM (inactive)
same,GI50,LOX IMVI,> 100 µM (inactive)
same,GI50,BT-549,> 100 µM (inactive)
same,GI50,UACC-62,> 100 µM (inactive)
same,GI50,NCI-H226,> 100 µM (inactive)
same,GI50,MCF7,> 100 µM (inactive)
same,GI50,SNB-75,> 100 µM (inactive)
same,GI50,ACHN,> 100 µM (inactive)
same,GI50,PC-3,> 100 µM (inactive)
same,GI50,OVCAR-8,> 100 µM (inactive)
same,GI50,NCI/ADR-RES,> 100 µM (inactive)
same,GI50,SF-268,> 100 µM (inactive)
same,GI50,OVCAR-3,> 100 µM (inactive)
same,GI50,Hs-578T,> 100 µM (inactive)
same,GI50,HOP-92,> 100 µM (inactive)
same,GI50,M14,> 100 µM (inactive)
same,GI50,TK-10,> 100 µM (inactive)
same,GI50,SF-539,> 100 µM (inactive)
same,GI50,CCRF-CEM,> 100 µM (inactive)
same,GI50,OVCAR-4,> 100 µM (inactive)
same,GI50,MOLT-4,> 100 µM (inactive)
same,GI50,MDA-N,> 100 µM (inactive)
same,GI50,OVCAR-5,> 100 µM (inactive)
same,GI50,EKVX,> 100 µM (inactive)
same,GI50,MDA-MB-435,> 100 µM (inactive)
same,GI50,SK-MEL-2,> 100 µM (inactive)
same,GI50,KM12,> 100 µM (inactive)
same,GI50,IGROV-1,> 100 µM (inactive)
same,GI50,U-251,> 100 µM (inactive)
same,GI50,786-0,> 100 µM (inactive)
same,GI50,HCT-15,> 100 µM
same,GI50,MDA-MB-231,> 100 µM (inactive)
same,GI50,SK-MEL-28,> 100 µM (inactive)
same,GI50,NCI-H522,> 100 µM (inactive)
same,GI50,NCI-H460,> 100 µM (inactive)
same,GI50,SN12C,> 100 µM (inactive)
same,GI50,DU-145,> 100 µM (inactive)
same,GI50,HT-29,> 100 µM (inactive)
same,GI50,COLO 205,> 100 µM (inactive)
same,GI50,SNB-19,> 100 µM (inactive)
same,GI50,SF-295,> 100 µM (inactive)
same,GI50,SW-620,> 100 µM (inactive)
same,GI50,RXF 393,> 100 µM (inactive)
same,GI50,HCC 2998,> 100 µM (inactive)
same,GI50,UO-31,> 100 µM (inactive)
same,GI50,A549,> 100 µM (inactive)
CC(C)c1cc(C(C)C)c(Cl)c(Cl)c1O.CC(C)c1cc(Cl)c(O)c(C(C)C)c1Cl,GI50,HOP-62,32.7 µM (inactive)
same,GI50,SK-MEL-5,0.063 µM (active)
same,GI50,HL-60,18.3 µM (inactive)
same,GI50,NCI-H23,39.2 µM (inactive)
same,GI50,HCT-116,76.7 µM (inactive)
same,GI50,UACC-257,20 µM (inactive)
same,GI50,Malme-3M,24.8 µM (inactive)
same,GI50,CAKI-1,20.5 µM (inactive)
same,GI50,LOX IMVI,32.3 µM (inactive)
same,GI50,BT-549,19.9 µM (inactive)
same,GI50,UACC-62,19.6 µM (inactive)
same,GI50,MCF7,23.7 µM (inactive)
same,GI50,ACHN,23.4 µM (inactive)
same,GI50,PC-3,19.5 µM (inactive)
same,GI50,OVCAR-8,26.7 µM (inactive)
same,GI50,NCI/ADR-RES,32.8 µM (inactive)
same,GI50,SF-268,18.8 µM (inactive)
same,GI50,OVCAR-3,24.5 µM (inactive)
same,GI50,Hs-578T,16.6 µM (inactive)
same,GI50,HOP-92,10.5 µM (inactive)
same,GI50,M14,71.8 µM (inactive)
same,GI50,K562,16.9 µM (inactive)
same,GI50,TK-10,26.5 µM (inactive)
same,GI50,SF-539,20 µM (inactive)
same,GI50,CCRF-CEM,37.1 µM (inactive)
same,GI50,RPMI-8226,20.4 µM (inactive)
same,GI50,OVCAR-5,48.3 µM (inactive)
same,GI50,EKVX,20.5 µM (inactive)
same,GI50,MDA-MB-435,21.4 µM (inactive)
same,GI50,SK-MEL-2,18.5 µM (inactive)
same,GI50,KM12,24.4 µM (inactive)
same,GI50,IGROV-1,21.6 µM (inactive)
same,GI50,U-251,34.7 µM (inactive)
same,GI50,786-0,34.5 µM (inactive)
same,GI50,HCT-15,36.7 µM
same,GI50,MDA-MB-231,20.1 µM (inactive)
same,GI50,SK-MEL-28,24.1 µM (inactive)
same,GI50,NCI-H522,14 µM (inactive)
same,GI50,SR,9.25 µM (inactive)
same,GI50,NCI-H460,30 µM (inactive)
same,GI50,SN12C,22.4 µM (inactive)
same,GI50,DU-145,35 µM (inactive)
same,GI50,HT-29,24 µM (inactive)
same,GI50,COLO 205,20.2 µM (inactive)
same,GI50,SNB-19,23 µM (inactive)
same,GI50,SF-295,18.7 µM (inactive)
same,GI50,SW-620,25.8 µM (inactive)
same,GI50,RXF 393,12.5 µM (inactive)
same,GI50,HCC 2998,28.8 µM (inactive)
same,GI50,UO-31,23.2 µM (inactive)
same,GI50,A549,40.2 µM (inactive)
Cn1c2nc3ccccc3c-2cc2ccccc21 [NEOCRYPTOLEPINE HYDROCHLORIDE],GI50,HL-60,3.62 µM (inactive)
same,GI50,LOX IMVI,5.07 µM (inactive)
same,GI50,MCF7,3.21 µM (inactive)
same,GI50,PC-3,5.45 µM (inactive)
same,GI50,OVCAR-3,6.4 µM (inactive)
same,GI50,K562,4.3 µM (inactive)
same,GI50,SF-539,5.74 µM (inactive)
same,GI50,CCRF-CEM,4.4 µM (inactive)
same,GI50,EKVX,3.98 µM (inactive)
same,GI50,MDA-MB-435,5.65 µM (inactive)
same,GI50,IGROV-1,4.6 µM (inactive)
same,GI50,SR,2.93 µM (inactive)
same,GI50,NCI-H460,3.29 µM (inactive)
same,GI50,DU-145,12.8 µM (inactive)
same,GI50,HT-29,4.69 µM (inactive)
same,GI50,COLO 205,2.76 µM (inactive)
same,GI50,SF-295,6.34 µM (inactive)
same,GI50,SW-620,5.79 µM (inactive)
